Columns and labels:
human FAP-α = human FAP-α (Homo sapiens (Human), UniProt Q12884); assay: Competitive binding of radiolabeled compound to HT-1080-FAP cells against unlabeled compound; settings: radiolabeled FAPI-01 (I-125) / FAPI-02 (Lu-177), HT-1080-FAP cells, 60 min; read-out: IC50 human FAP-α
Method: Competition experiments were performed by simultaneous exposure to unlabeled (10^−5 M to 10^−9M) and radiolabeled compound for 60 min. […] For internalization experiments, surface bound activity was removed by incubating the cells with 1 M glycine-HCl buffer for 10 min. The radioactivity was measured using a γ-counter, normalized to 1 mio cells and calculated as percentage of applied dose (% ID).
The medium was replaced by 1 mL fresh medium without fetal calf serum. […] Competition experiments were performed by simultaneous exposure to unlabeled (10^−5 M to 10^−9 M) and radiolabeled compound for 60 min. […] In all experiments, the cells were washed with 1 mL phosphate-buffered saline pH 7.4 for 2 times and subsequently lysed with 1.4 ml lysis buffer (0.3 M NaOH, 0.2% SDS). Radioactivity was determined in a γ-counter (Cobra II, Packard), normalized to 1 mio cells and calculated as percentage of the applied dose (% ID). Each experiment was performed 3 times, and 3 repetitions per independent experiment were acquired.

HT-1080-FAP cells = assay: Radioligand binding and internalization in HT-1080-FAP cells; type: cell-based, human
Method: Radioligand binding studies were performed using HT-1080-FAP cells. The radiolabeled compound was added to the cell culture and incubated for different time intervals ranging from 10 min to 24 h. Competition experiments were performed by simultaneous exposure to unlabeled (10^−5 M to 10^−9M) and radiolabeled compound for 60 min. For efflux experiments, radioactive medium was removed after incubation for 60 min and replaced by non-radioactive medium for time intervals ranging from 1 to 24 h. For internalization experiments, surface bound activity was removed by incubating the cells with 1 M glycine-HCl buffer for 10 min. The radioactivity was measured using a γ-counter, normalized to 1 mio cells and calculated as percentage of applied dose (% ID).
For radioligand binding studies, cells were seeded in 6-well plates and cultivated for 48 h to a final confluence of approx. 80-90% (1.2-2 mio cells/well). The medium was replaced by 1 mL fresh medium without fetal calf serum. The radiolabeled compound was added to the cell culture and incubated for different time intervals ranging from 10 min to 24 h. Competition experiments were performed by simultaneous exposure to unlabeled (10^−5 M to 10^−9 M) and radiolabeled compound for 60 min. For efflux experiments, radioactive medium was removed after incubation for 60 min and replaced by non-radioactive medium for time intervals ranging from 1 to 24 h. In all experiments, the cells were washed with 1 mL phosphate-buffered saline pH 7.4 for 2 times and subsequently lysed with 1.4 ml lysis buffer (0.3 M NaOH, 0.2% SDS). Radioactivity was determined in a γ-counter (Cobra II, Packard), normalized to 1 mio cells and calculated as percentage of the applied dose (% ID). Each experiment was performed 3 times, and 3 repetitions per independent experiment were acquired.
For internalization experiments the cells were incubated with the radiolabeled compound for 60 min at 37° C. and 4° C. Cellular uptake was terminated by removing medium from the cells and washing 2 times with 1 mL PBS. Subsequently, cells were incubated with 1 mL of glycine-HCl (1 Min PBS, pH 2.2) for 10 min at room temperature to remove the surface bound activity. The cells were washed with 2 mL of ice-cold PBS and lysed with 1.4 mL of lysis buffer to determine the internalized fraction. For the cells incubated at 4° C., all washing and elution steps were carried out using ice-cold buffers. The radioactivity was measured using a γ-counter, normalized to 1 mio cells and calculated as percentage of applied dose (% ID).

Capan-2 tumor xenografts [1] = assay: Organ distribution ex vivo in Capan-2 tumor bearing nude mice; design: species or system mouse; settings: Lu-177 labeled, 1 h after i.v., Capan-2, mean ± SD, n = 3
Method: (§1) For in vivo experiments, 8 week old BALB/c nu/nu mice (Charles River) were subcutaneously inoculated into the right trunk with 5×10^6 with HT-1080-FAP, Capan-2 or SK-LMS-1 cells, respectively. When the size of the tumor reached approximately 1 cm^3, the radiolabeled compound was injected via the tail vein (˜10 MBq for small-animal PET imaging; ˜1 MBq for organ distribution). PET imaging was performed up to 140 min after intravenous injection of 1 MBq of Ga-68 labeled compound per mouse using the Inveon PET small-animal PET scanner (Siemens). Images were reconstructed iteratively using the 3D-OSEM+MAP method and were converted to standardized uptake value (SUV) images. Quantification was done using a ROI technique and expressed as SUV mean. For organ distribution of Lu-177 labeled compound (approx. […] per mouse), the animals (n=3 for each time point) were sacrificed after indicated time points (from 30 min to 24 h). The distributed radioactivity was measured in all dissected organs and in blood using a γ-counter (Cobra Autogamma, Packard). The values are expressed as percentage of injected dose per gram of tissue (% ID/g).

Capan-2 tumor xenografts [2] = assay: Dynamic small-animal PET, two-tissue compartment model, Capan-2 xenografts; type: in vivo, mouse; settings: 68Ga-FAPI-02, Capan-2, − comp.
Method: as §1
(§2) For pharmakokinetic modeling the transport constant K1 and the rate constants k2-k4 were calculated using a two-tissue compartment model implemented in the PMOD software, taking into account the vascular fraction (vB), which is associated with the volume of blood exchanging with tissue in a VOI. The rate constants that describe the compartmental fluxes include k1 (binding to the receptor), k2 (detachment) as well as k3 (internalization) and k4 (efflux) in the tumor tissue. In this model the fractional volume of distribution (DV=K1/k2) is the proportion of the region of interest in which […] is distributed.

[3] = tested on: HT-1080-FAP tumor xenografts; assay: Dynamic small-animal PET, two-tissue compartment model, HT-1080-FAP xenografts; type: in vivo, mouse; settings: 68Ga-FAPI-02, HT-1080-FAP
Method: as §1, §2

Chain of human FAP-α (Q12884 whole entry): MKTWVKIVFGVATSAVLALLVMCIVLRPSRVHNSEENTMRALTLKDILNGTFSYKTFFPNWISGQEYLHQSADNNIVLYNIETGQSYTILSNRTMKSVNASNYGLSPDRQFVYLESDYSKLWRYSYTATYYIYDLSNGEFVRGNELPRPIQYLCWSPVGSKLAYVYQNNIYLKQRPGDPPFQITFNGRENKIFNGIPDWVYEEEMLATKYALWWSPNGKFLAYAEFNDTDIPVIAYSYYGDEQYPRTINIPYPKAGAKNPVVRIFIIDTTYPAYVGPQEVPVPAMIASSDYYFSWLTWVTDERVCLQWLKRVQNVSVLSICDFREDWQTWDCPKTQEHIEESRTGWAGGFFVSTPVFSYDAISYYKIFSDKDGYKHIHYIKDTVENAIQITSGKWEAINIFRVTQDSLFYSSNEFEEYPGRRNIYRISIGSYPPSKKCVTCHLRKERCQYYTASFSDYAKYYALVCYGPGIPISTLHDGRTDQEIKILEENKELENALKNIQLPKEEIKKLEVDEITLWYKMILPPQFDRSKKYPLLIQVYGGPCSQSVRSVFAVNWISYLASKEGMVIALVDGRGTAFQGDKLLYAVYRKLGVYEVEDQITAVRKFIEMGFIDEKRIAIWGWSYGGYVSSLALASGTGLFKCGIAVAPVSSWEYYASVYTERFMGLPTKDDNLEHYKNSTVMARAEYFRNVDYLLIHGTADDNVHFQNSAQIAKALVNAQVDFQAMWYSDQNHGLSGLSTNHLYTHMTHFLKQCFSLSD

## N#C[C@@H]1CCCN1C(=O)CNC(=O)c1ccnc2ccc(OCCCN3CCN(C(=O)CN4CCN(CC(=O)O)CCN(CC(=O)O)CCN(CC(=O)O)CC4)CC3)cc12 [FAPI-02]
Human FAP-α
  IC50: 21 nM
HT-1080-FAP cells; 24 h incubation, FAPI-01 compared to binding after 10 min
  activity remaining after 24 h of incubation relative to initial radioactivity: 34%
HT-1080-FAP cells; Lu-177 labeled, after 60 min
  internalized proportion of uptake: 96%
  uptake into FAP-α expressing cells: 20.15±1.74 % ID
Capan-2 tumor xenografts [1]
  Blood uptake: 0.83 ± 0.127 % ID/g
  Brain uptake: 0.05 ± 0.010 % ID/g
  Heart uptake: 0.37 ± 0.031 % ID/g
  Intestines uptake: 0.30 ± 0.064 % ID/g
  Kidneys uptake: 1.45 ± 0.106 % ID/g
  Liver uptake: 0.36 ± 0.015 % ID/g
  Lungs uptake: 0.72 ± 0.021 % ID/g
  Muscle uptake: 0.94 ± 0.168 % ID/g
  Spleen uptake: 0.25 ± 0.015 % ID/g
  Tumor uptake: 3.82 ± 0.390 % ID/g
Capan-2 tumor xenografts [2]
  Flux: 0.03 ml/ccm/min
  Vs (ratio of specific binding concentration to total parent at equilibrium): 0.93 ml/ccm
  Vt (total distribution volume): 1.44 ml/ccm
  k1: 0.08 ml/ccm/min
  k2: 0.16 min⁻¹
  k3: 0.08 min⁻¹
  k4: 0.05 min⁻¹
  vB (vascular fraction): 0.08 l/l
[3]; + comp.
  Flux: 0.01 ml/ccm/min
  Vs (ratio of specific binding concentration to total parent at equilibrium): 0.18 ml/ccm
  Vt (total distribution volume): 0.48 ml/ccm
  k1: 0.10 ml/ccm/min
  k2: 0.32 min⁻¹
  k3: 0.04 min⁻¹
  k4: 0.07 min⁻¹
  vB (vascular fraction): 0.04 l/l
[3]; − comp.
  Flux: 0.03 ml/ccm/min
  Vs (ratio of specific binding concentration to total parent at equilibrium): 2.31 ml/ccm
  Vt (total distribution volume): 0.87 ml/ccm
  k1: 0.07 ml/ccm/min
  k2: 0.13 min⁻¹
  k3: 0.1 min⁻¹
  k4: 0.02 min⁻¹
  vB (vascular fraction): 0.04 l/l

Source: US20250127937A1, “FAP INHIBITOR” (UNIVERSITÄT HEIDELBERG, priority 2018, published 2025)
